# Assay results published in ChEMBL document CHEMBL5442219.
# How the values were obtained:
# Conditions in all cases: Compound concentration 10 µM
# [1] = molecular target: T1, Alpha-1B adrenergic receptor (Homo sapiens) (UniProt P35368)
# T1 sequence (whole entry): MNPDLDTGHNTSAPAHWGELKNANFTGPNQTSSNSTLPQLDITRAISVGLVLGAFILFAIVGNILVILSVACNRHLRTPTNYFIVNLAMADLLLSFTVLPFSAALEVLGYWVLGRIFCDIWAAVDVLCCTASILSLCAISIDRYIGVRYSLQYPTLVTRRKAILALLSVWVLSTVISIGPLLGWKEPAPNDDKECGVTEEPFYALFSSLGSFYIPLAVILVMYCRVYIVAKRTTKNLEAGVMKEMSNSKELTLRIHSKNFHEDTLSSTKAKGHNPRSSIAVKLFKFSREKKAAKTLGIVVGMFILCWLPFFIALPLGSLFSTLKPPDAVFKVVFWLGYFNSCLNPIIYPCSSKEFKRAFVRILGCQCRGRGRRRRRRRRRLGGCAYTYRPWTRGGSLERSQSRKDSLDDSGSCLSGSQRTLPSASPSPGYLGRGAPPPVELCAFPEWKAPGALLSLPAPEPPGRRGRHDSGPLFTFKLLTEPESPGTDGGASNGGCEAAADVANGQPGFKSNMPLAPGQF
# [2] = molecular target: Kappa-type opioid receptor (Homo sapiens) (UniProt P41145)
# [3] = molecular target: D(1A) dopamine receptor (Homo sapiens) (UniProt P21728)
# [4] = molecular target: Muscarinic acetylcholine receptor M3 (Homo sapiens) (UniProt P20309)
# [5] = molecular target: T2, Alpha-2A adrenergic receptor (Homo sapiens) (UniProt P08913)
# T2 sequence (whole entry): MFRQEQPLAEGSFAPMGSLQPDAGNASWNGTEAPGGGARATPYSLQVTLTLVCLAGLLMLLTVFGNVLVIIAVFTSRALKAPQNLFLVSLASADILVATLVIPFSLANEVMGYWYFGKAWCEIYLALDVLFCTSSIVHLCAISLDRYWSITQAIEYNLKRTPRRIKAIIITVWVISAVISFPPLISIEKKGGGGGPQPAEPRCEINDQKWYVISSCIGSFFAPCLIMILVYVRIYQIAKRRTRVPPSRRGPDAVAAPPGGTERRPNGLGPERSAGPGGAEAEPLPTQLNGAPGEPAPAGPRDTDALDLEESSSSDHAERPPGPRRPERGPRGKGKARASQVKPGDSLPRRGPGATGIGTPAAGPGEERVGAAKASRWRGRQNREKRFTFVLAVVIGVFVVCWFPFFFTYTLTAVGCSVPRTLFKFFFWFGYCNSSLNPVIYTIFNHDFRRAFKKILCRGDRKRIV
# [6] = molecular target: Beta-1 adrenergic receptor (Homo sapiens) (UniProt P08588)
# [7] = molecular target: Histamine H4 receptor (Homo sapiens) (UniProt Q9H3N8)
# [8] = molecular target: 5-hydroxytryptamine receptor 6 (Homo sapiens) (UniProt P50406)
# [9] = molecular target: T3, 5-hydroxytryptamine receptor 2C (Homo sapiens) (UniProt P28335)
# T3 sequence (whole entry): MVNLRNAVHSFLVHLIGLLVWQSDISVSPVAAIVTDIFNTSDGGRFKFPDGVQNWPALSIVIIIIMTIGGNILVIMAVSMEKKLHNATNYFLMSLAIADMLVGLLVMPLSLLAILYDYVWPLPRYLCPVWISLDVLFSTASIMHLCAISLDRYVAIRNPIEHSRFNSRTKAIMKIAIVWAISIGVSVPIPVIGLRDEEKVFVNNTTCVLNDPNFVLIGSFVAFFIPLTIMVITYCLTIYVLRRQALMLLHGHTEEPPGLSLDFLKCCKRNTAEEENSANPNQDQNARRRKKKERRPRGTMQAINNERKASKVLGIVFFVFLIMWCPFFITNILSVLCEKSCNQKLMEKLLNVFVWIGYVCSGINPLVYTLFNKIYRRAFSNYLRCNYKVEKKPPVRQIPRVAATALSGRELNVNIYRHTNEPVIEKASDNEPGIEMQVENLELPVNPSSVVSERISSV
# [10] = molecular target: Sodium-dependent noradrenaline transporter (Homo sapiens) (UniProt P23975)
# [11] = molecular target: T4, D(4) dopamine receptor (Homo sapiens) (UniProt P21917)
# T4 sequence (whole entry): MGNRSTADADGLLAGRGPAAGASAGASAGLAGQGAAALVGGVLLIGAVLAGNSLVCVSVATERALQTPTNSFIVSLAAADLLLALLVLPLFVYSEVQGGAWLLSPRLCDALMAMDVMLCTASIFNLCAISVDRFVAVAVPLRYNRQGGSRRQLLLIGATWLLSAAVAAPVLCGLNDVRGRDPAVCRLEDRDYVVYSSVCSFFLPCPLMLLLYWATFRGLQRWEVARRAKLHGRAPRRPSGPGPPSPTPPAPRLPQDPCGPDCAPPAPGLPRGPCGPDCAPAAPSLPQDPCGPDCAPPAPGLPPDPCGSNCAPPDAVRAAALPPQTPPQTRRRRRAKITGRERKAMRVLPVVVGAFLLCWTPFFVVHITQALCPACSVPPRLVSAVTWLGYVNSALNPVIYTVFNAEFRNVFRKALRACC
# [12] = molecular target: 5-hydroxytryptamine receptor 1D (Homo sapiens) (UniProt P28221)
# [13] = molecular target: T5, 5-hydroxytryptamine receptor 3A (Homo sapiens) (UniProt P46098)
# T5 sequence (whole entry): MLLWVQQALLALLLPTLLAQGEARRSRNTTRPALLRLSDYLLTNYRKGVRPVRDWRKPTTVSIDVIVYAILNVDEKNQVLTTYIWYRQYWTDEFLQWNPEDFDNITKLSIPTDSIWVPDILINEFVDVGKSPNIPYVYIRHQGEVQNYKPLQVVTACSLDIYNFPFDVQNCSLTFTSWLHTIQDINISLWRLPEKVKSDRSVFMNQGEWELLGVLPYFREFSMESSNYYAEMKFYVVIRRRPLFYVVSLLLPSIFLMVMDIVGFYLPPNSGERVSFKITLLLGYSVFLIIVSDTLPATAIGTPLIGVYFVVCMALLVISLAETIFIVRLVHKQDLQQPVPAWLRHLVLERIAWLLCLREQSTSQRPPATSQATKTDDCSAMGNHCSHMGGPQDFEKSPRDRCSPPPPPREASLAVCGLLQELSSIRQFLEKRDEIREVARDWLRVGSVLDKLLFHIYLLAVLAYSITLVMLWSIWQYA
# [14] = molecular target: 5-hydroxytryptamine receptor 2B (Homo sapiens) (UniProt P41595)
# 5-hydroxytryptamine receptor 2B (Homo sapiens), sequence (P41595 whole entry): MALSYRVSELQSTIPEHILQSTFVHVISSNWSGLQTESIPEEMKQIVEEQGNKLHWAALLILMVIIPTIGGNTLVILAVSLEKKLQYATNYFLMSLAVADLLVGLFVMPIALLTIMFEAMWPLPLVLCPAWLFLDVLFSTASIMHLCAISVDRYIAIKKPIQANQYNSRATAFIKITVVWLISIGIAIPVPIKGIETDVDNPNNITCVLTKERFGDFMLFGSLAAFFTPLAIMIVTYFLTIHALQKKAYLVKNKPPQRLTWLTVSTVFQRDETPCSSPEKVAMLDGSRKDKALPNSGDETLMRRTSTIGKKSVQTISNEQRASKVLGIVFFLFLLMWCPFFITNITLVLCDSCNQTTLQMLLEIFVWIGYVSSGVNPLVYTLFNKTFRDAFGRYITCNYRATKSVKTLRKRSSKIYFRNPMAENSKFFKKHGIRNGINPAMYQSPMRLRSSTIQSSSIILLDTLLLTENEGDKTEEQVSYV
# 5-hydroxytryptamine receptor 1D (Homo sapiens), sequence (P28221 whole entry): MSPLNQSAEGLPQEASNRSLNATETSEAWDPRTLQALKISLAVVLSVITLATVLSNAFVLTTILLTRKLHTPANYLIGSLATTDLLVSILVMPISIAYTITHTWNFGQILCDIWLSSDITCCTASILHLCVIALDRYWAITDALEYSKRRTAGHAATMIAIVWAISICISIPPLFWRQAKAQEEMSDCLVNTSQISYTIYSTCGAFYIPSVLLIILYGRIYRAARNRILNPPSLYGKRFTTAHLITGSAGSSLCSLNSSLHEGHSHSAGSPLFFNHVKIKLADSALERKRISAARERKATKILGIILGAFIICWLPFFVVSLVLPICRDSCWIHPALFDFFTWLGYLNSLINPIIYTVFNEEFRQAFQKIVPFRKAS
# Histamine H4 receptor (Homo sapiens), sequence (Q9H3N8 whole entry): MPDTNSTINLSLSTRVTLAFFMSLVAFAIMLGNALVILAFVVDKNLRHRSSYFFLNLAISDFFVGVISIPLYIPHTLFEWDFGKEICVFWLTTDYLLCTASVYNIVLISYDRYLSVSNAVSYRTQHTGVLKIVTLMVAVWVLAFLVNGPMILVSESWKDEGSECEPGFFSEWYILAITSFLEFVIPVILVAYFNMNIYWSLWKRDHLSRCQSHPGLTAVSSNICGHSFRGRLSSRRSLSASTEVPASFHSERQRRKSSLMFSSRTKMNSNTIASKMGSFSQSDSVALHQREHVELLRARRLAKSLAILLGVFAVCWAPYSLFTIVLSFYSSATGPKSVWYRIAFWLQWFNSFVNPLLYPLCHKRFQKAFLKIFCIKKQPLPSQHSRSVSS
# D(1A) dopamine receptor (Homo sapiens), sequence (P21728 whole entry): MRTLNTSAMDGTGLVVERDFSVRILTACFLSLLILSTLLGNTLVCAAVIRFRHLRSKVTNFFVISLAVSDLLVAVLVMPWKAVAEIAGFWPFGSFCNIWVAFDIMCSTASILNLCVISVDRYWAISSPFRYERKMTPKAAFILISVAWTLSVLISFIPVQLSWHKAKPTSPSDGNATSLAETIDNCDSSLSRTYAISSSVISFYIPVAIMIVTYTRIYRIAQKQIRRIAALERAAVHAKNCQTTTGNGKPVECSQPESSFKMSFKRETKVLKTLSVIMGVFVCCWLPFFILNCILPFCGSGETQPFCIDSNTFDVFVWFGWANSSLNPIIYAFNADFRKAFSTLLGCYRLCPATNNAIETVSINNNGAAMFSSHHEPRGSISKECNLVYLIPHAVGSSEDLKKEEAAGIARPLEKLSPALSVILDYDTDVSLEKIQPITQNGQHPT
# Kappa-type opioid receptor (Homo sapiens), sequence (P41145 whole entry): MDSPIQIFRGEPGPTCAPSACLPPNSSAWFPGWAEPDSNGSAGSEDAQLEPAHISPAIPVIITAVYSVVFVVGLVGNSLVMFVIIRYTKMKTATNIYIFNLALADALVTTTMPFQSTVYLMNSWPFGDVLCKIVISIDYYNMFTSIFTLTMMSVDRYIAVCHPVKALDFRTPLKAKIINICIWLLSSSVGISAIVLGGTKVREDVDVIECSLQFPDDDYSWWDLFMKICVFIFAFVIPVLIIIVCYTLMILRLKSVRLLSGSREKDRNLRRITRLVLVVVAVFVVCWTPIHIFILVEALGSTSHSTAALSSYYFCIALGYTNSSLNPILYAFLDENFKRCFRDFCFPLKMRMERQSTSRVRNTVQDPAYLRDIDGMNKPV
# Muscarinic acetylcholine receptor M3 (Homo sapiens), sequence (P20309 whole entry, looked up): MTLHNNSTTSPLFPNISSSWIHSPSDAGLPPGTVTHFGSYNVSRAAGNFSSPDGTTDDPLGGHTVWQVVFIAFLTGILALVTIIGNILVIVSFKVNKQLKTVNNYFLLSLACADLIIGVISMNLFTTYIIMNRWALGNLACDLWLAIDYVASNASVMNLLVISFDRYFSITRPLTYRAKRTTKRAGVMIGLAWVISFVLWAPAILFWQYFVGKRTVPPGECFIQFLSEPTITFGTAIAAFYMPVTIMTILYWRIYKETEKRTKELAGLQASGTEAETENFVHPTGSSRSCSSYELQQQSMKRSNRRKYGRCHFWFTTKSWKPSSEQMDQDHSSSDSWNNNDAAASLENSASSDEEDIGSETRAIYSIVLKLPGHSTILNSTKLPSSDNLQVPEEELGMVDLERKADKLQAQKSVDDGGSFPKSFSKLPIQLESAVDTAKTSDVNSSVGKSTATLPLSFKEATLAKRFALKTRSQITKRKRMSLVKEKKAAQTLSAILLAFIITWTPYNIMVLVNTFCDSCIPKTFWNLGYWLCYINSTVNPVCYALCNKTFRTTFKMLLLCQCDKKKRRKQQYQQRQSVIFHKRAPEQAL
# Sodium-dependent noradrenaline transporter (Homo sapiens), sequence (P23975 whole entry): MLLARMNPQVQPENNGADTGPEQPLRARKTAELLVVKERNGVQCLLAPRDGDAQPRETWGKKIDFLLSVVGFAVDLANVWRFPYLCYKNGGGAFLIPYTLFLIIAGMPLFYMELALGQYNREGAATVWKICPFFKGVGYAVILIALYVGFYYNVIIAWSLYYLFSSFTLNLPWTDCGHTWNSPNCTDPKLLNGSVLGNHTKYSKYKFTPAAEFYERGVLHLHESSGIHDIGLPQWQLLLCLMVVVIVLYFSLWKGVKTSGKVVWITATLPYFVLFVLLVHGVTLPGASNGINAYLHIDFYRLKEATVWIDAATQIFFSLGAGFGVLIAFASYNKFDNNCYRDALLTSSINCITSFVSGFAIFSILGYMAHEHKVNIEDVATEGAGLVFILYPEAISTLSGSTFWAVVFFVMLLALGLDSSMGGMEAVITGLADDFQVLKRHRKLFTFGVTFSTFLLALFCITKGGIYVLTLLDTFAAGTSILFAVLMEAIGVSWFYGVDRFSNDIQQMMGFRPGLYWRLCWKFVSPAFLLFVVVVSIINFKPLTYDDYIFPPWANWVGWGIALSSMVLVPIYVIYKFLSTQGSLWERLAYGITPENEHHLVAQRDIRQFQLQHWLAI
# 5-hydroxytryptamine receptor 6 (Homo sapiens), sequence (P50406 whole entry): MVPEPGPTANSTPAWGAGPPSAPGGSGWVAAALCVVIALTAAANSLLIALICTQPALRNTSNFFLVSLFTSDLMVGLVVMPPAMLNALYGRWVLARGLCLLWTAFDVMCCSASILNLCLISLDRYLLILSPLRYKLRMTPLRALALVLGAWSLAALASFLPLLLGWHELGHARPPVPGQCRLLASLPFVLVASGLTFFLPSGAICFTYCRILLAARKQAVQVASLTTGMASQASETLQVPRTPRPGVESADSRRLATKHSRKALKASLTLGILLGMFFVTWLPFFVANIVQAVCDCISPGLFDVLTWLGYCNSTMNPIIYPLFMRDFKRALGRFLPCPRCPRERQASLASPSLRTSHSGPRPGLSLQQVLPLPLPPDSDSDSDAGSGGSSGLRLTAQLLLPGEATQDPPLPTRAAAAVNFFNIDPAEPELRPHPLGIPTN
# Beta-1 adrenergic receptor (Homo sapiens), sequence (P08588 whole entry, looked up): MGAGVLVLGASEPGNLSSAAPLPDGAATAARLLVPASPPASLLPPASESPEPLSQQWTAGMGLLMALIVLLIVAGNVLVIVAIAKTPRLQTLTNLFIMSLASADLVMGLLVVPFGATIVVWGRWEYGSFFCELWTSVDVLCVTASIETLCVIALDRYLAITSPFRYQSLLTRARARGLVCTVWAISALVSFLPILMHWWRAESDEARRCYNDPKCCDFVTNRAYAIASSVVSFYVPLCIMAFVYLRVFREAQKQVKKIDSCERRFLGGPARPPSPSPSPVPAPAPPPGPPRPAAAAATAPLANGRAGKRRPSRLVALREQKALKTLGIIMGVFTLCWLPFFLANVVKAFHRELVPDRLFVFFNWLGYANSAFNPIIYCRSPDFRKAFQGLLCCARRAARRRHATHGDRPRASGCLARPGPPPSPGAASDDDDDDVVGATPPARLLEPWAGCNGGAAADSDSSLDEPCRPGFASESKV
Structure (SMILES),inhibition [1] [%],inhibition [2] [%],inhibition [3] [%],inhibition [4] [%],inhibition [5] [%],inhibition [6] [%],inhibition [7] [%],inhibition [8] [%],inhibition [9] [%],inhibition [10] [%],inhibition [11] [%],inhibition [12] [%],inhibition [13] [%],inhibition [14] [%]
CC(C)[C@H](CO)Nc1nc(Nc2cccc(Cl)c2)c2ncn(C(C)C)c2n1,12.9,34.6,20.4,-0.08,6.44,29.9,11.2,52.3,51,54.1,62.7,60.1,25.4,96.2
CN1CCC(C(=O)c2cccc(NC(=O)c3c(F)cc(F)cc3F)n2)CC1,8.88,69.2,15.1,43.5,19.9,-2.95,-0.15,11.4,6.11,23.5,14,80.7,20.9,60.6
CC1CCN(CC[C@H]2CCCN2S(=O)(=O)c2cccc(O)c2)CC1,-3.56,50.4,-5.94,0.09,65.6,9.71,10.6,,,30.6,22.1,88.7,-9.3,15.4
COc1ccc(NC(=O)c2ccc(-c3ccc(-c4noc(C)n4)cc3C)cc2)cc1OCCN(C)C,26.8,44,47.9,37.2,99.4,4.01,49,,98.3,94,45.4,101,5.18,90.6
CCCCCCCCCCCCC/C=C/[C@@H](O)[C@@H](N)COP(=O)(O)O,-1.45,6.18,2.88,9.29,4.33,0.96,7.9,3.57,-2.94,35.1,,63.5,-1.93,11.5
N#Cc1c(O)nc(SCc2cccc(F)c2F)nc1C1CC1,-9.08,3.53,-8.29,5.27,,28.6,4.02,9.18,-5.1,-1.64,-4.74,38.9,,9.1
NCCc1cn(S(=O)(=O)c2c(Cl)nc3sccn23)c2ccccc12,51.4,32.8,41.2,25.2,93.4,44.4,11.2,99.3,,84.1,38.7,81.9,79.2,98.3
c1nc(CC2CCNCC2)c[nH]1,15.3,,24.2,6.47,14.5,-4.6,105,18.8,,15.7,14.9,9.58,6.29,30.4
OC[C@H]1O[C@@H](n2cnc3c(NC4CCCC4)ncnc32)[C@H](O)[C@@H]1O,9.65,-5.12,-1.28,-0.28,-6.3,1.3,,,-3.43,28.3,34,24.7,3.29,38.5
CC1(C)SSC(C)(C)[C@@H](NC(=O)[C@@H](N)Cc2ccc(O)cc2)C(=O)NCC(=O)N[C@@H](Cc2ccccc2)C(=O)N[C@H]1C(=O)O,8.91,-4.89,11.4,-1.79,13.7,-5.41,-8.56,,,3.43,49,15.2,,24.7
Cc1ccc(O)c([C@H](CCN(C(C)C)C(C)C)c2ccccc2)c1,17.4,31,-4.98,99.8,20.2,-3.65,-9.16,,,29.7,35.3,41.2,-0.33,32.5
CCc1cc2c(cc1CC)CC(NC[C@H](O)c1ccc(O)c3[nH]c(=O)ccc13)C2,59,,11.9,18.1,42.1,68,4.91,,66.8,84.6,24.2,118,-4.69,92.6
O=C(O)c1cc(-c2ccc(C3CCNCC3)cc2)c2ccc(-c3ccc(C(F)(F)F)cc3)cc2c1,38.4,19.2,27,1.23,42.2,47,-8.87,11.3,-3.35,88,,73.1,21.6,26.6
